“And” between values parts separate entries of the source, which are not always exact repeats. Identical values can stand only once. Inconclusive results and toxic doses are left out. The calls were made as follows: active = survival T/C of 150% or more; inactive = T/C below 125% in these data.
System: P388 leukemia ip, CD2F1 mice, survival T/C
Assay: NCI In Vivo Anticancer Drug Screen. Data for tumor model P388 Leukemia (intraperitoneal) in CD2F1 (CDF1) mice
Conditions: endpoint: median survival time, higher = longer survival
In short: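 Mice carrying the transplanted tumor received test compound or vehicle. Survival was recorded in each group, and the value is the treated-group measurement divided by that of the vehicle-treated control group.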

[1] = dose: 50.0 mg/kg/injection, schedule: Q01DX005 (ip), vehicle: saline with Tween-80
[2] = dose: 100.0 mg/kg/injection, schedule: Q01DX005 (ip), vehicle: saline with Tween-80
[3] = dose: 200.0 mg/kg/injection, schedule: Q01DX005 (ip), vehicle: saline with Tween-80
[4] = dose: 50.0 mg/kg/injection, schedule: Q01DX009 (ip), vehicle: saline with Tween-80
[5] = dose: 100.0 mg/kg/injection, schedule: Q01DX009 (ip), vehicle: saline with Tween-80
[6] = dose: 200.0 mg/kg/injection, schedule: Q01DX009 (ip), vehicle: saline with Tween-80
[7] = dose: 60.0 mg/kg/injection, schedule: Q01DX005 (ip), vehicle: saline with Tween-80
[8] = dose: 100.0 mg/kg/injection, schedule: Q04DX003 (ip), vehicle: saline with Tween-80

Measured: T/C

[C-]#[N+]C1(c2ccccc2)C2CC3CC(C2)CC1C3 (stereo not given)
inactive: dose: 100.0 mg/kg/injection, schedule: Q04DX003 (ip), vehicle: Klucel (hydroxypropylcellulose) (HPC) 106 % of control | dose: 200.0 mg/kg/injection, schedule: Q04DX003 (ip), vehicle: Klucel (hydroxypropylcellulose) (HPC) 100 % of control | dose: 400.0 mg/kg/injection, schedule: Q04DX003 (ip), vehicle: Klucel (hydroxypropylcellulose) (HPC) 106 % of control

c1ccc2c(c1)NC(c1ccc3c(c1)Sc1cc(C4Nc5ccccc5N4)ccc1O3)N2
inactive: [1] 95 % of control | [2] 102 % of control | [3] 100 % of control

O=C(COc1ccc(Cl)cc1Cl)Nc1ccccc1C(=O)c1ccccc1
inactive: [4] 101 % of control | [5] 101 % of control | [6] 94 % of control

IC1=CC2CCC(C1)C2 (stereo not given)
inactive: dose: 25.0 mg/kg/injection, schedule: Q01DX009 (ip), vehicle: saline with Tween-80 100 % of control and 103 % of control | [4] 104 % of control and 116 % of control and 93 % of control | [5] 101 % of control and 109 % of control | [6] 102 % of control and 122 % of control and 96 % of control

COC(=O)c1cc(Cl)ccc1NCC(N)c1ccccc1 (stereo not given)
inactive: dose: 30.0 mg/kg/injection, schedule: Q01DX005 (ip), vehicle: saline with Tween-80 99 % of control | [7] 101 % of control and 97 % of control

Nc1nc2c(c(=O)[nH]1)N(C(=O)CCCC(=O)O)C(CN(C(=O)CCCC(=O)O)c1ccc(C(=O)NC(CCC(=O)O)C(=O)O)cc1)CN2 (stereo not given) (tested in a mixture with another compound)
inactive: dose: 50.0 mg/kg/injection, schedule: Q01DX009 (ip), vehicle: saline 94 % of control | dose: 100.0 mg/kg/injection, schedule: Q01DX009 (ip), vehicle: saline 110 % of control | dose: 200.0 mg/kg/injection, schedule: Q01DX009 (ip), vehicle: saline 95 % of control

Cc1cn(C2CC(O)C(CO)O2)c(=O)[nH]c1=O (stereo not given)
inactive: dose: 16.0 mg/kg/injection, schedule: Q01DX009 (ip), vehicle: saline 100 % of control and 105 % of control | dose: 32.0 mg/kg/injection, schedule: Q01DX009 (ip), vehicle: saline with Tween-80 109 % of control | dose: 64.0 mg/kg/injection, schedule: Q01DX009 (ip), vehicle: saline with Tween-80 101 % of control | dose: 128.0 mg/kg/injection, schedule: Q01DX009 (ip), vehicle: saline with Tween-80 101 % of control | dose: 150.0 mg/kg/injection, schedule: Q02HX012 (ip), vehicle: saline 96 % of control | dose: 150.0 mg/kg/injection, schedule: Q04DX012 (ip), vehicle: saline 104 % of control | dose: 200.0 mg/kg/injection, schedule: Q02HX012 (ip), vehicle: saline 98 % of control | dose: 200.0 mg/kg/injection, schedule: Q04DX012 (ip), vehicle: saline 102 % of control | dose: 250.0 mg/kg/injection, schedule: Q01DX001 (ip), vehicle: saline 98 % of control | dose: 250.0 mg/kg/injection, schedule: Q01DX009 (ip), vehicle: saline 100 % of control | dose: 256.0 mg/kg/injection, schedule: Q01DX009 (ip), vehicle: saline with Tween-80 89 % of control | dose: 300.0 mg/kg/injection, schedule: Q02HX012 (ip), vehicle: saline 101 % of control | dose: 300.0 mg/kg/injection, schedule: Q04DX012 (ip), vehicle: saline 100 % of control | dose: 375.0 mg/kg/injection, schedule: Q01DX009 (ip), vehicle: saline 107 % of control and 95 % of control | dose: 400.0 mg/kg/injection, schedule: Q02HX012 (ip), vehicle: saline 109 % of control | dose: 400.0 mg/kg/injection, schedule: Q04DX012 (ip), vehicle: saline 105 % of control | dose: 500.0 mg/kg/injection, schedule: Q01DX001 (ip), vehicle: saline 98 % of control | dose: 512.0 mg/kg/injection, schedule: Q01DX009 (ip), vehicle: saline with Tween-80 108 % of control | dose: 512.0 mg/kg/injection, schedule: Q01DX009 (ip), vehicle: saline 99 % of control and 102 % of control | dose: 600.0 mg/kg/injection, schedule: Q02HX012 (ip), vehicle: saline 108 % of control | dose: 600.0 mg/kg/injection, schedule: Q04DX012 (ip), vehicle: saline 102 % of control | dose: 750.0 mg/kg/injection, schedule: Q01DX009 (ip), vehicle: saline 115 % of control and 97 % of control | dose: 1000.0 mg/kg/injection, schedule: Q01DX009 (ip), vehicle: saline 101 % of control and 103 % of control and 110 % of control | dose: 1500.0 mg/kg/injection, schedule: Q01DX009 (ip), vehicle: saline 108 % of control

Cc1c(N)nc([C@H](CC(N)=O)NC[C@H](N)C(N)=O)nc1C(=O)N[C@H](C(=O)N[C@H](C)[C@@H](O)CC(=O)N[C@H](C(=O)NC(O[C@@H]1O[C@@H](C)[C@@H](N)[C@@H](O)[C@H]1O)C(O)c1nc(-c2nc(C(=O)NCCCCN)cs2)cs1)[C@@H](C)O)[C@@H](O[C@@H]1O[C@@H](CO)[C@@H](O)[C@H](O)[C@@H]1O[C@H]1O[C@H](CO)[C@@H](O)[C@H](OC(N)=O)[C@@H]1O)c1c[nH]cn1 (stereo not given in full)
inactive: dose: 0.5 mg/kg/injection, schedule: Q01DX009 (ip), vehicle: water 101 % of control | dose: 1.0 mg/kg/injection, schedule: Q01DX009 (ip), vehicle: water 98 % of control | dose: 2.0 mg/kg/injection, schedule: Q01DX009 (ip), vehicle: water 124 % of control | dose: 4.0 mg/kg/injection, schedule: Q01DX009 (ip), vehicle: water 95 % of control | dose: 8.0 mg/kg/injection, schedule: Q01DX009 (ip), vehicle: water 123 % of control

CC(=O)Nc1nc2c(=O)[nH]c(N)nc2n1C1OC(COC(C)=O)C(OC(C)=O)C1OC(C)=O (stereo not given)
inactive: dose: 50.0 mg/kg/injection, schedule: Q04DX003 (ip), vehicle: saline with Tween-80 96 % of control | [8] 100 % of control | dose: 200.0 mg/kg/injection, schedule: Q04DX003 (ip), vehicle: saline with Tween-80 105 % of control | dose: 400.0 mg/kg/injection, schedule: Q04DX003 (ip), vehicle: saline with Tween-80 102 % of control

CCOC(=O)C(CC(C)C)NC(C)=O (stereo not given)
inactive: dose: 100.0 mg/kg/injection, schedule: Q04DX002 (ip), vehicle: saline with Tween-80 100 % of control | dose: 200.0 mg/kg/injection, schedule: Q04DX002 (ip), vehicle: saline with Tween-80 105 % of control | dose: 400.0 mg/kg/injection, schedule: Q04DX002 (ip), vehicle: saline with Tween-80 114 % of control

CCCCCCCCCCCCCCCC(=O)N(CCCCCCCCCN(CCCN(C)C)C(=O)CCCCCCCCCCCCCCC)CCCN(C)C
inactive: dose: 3.13 mg/kg/injection, schedule: Q01DX009 (ip), vehicle: water 108 % of control | dose: 6.25 mg/kg/injection, schedule: Q01DX009 (ip), vehicle: water 109 % of control | dose: 12.5 mg/kg/injection, schedule: Q01DX009 (ip), vehicle: water 105 % of control | dose: 25.0 mg/kg/injection, schedule: Q01DX009 (ip), vehicle: water 93 % of control and 96 % of control | dose: 50.0 mg/kg/injection, schedule: Q01DX009 (ip), vehicle: water 103 % of control

C=C1C(O)C2(O)OCC34C(CC5C(C)=CC(=O)C(O)C5(C)C23)OC(=O)C(OC(=O)C(C)(O)CC)C14 (stereo not given)
inactive: dose: 0.25 mg/kg/injection, schedule: Q01DX009 (ip), vehicle: saline + alcohol 106 % of control and 112 % of control | dose: 0.5 mg/kg/injection, schedule: Q01DX009 (ip), vehicle: saline + alcohol 118 % of control

CCCCOc1ccc(-c2cnc(-c3ccc(-c4ncc(-c5ccc(OCCCC)cc5)o4)cc3)o2)cc1
inactive: dose: 3.0 mg/kg/injection, schedule: Q01DX005 (ip), vehicle: saline with Tween-80 91 % of control | dose: 6.0 mg/kg/injection, schedule: Q01DX005 (ip), vehicle: saline with Tween-80 88 % of control | dose: 25.0 mg/kg/injection, schedule: Q01DX005 (ip), vehicle: saline with Tween-80 89 % of control | [1] 87 % of control and 94 % of control | [2] 99 % of control | [3] 108 % of control

CC(C)(C)c1ccc(C2=NNC(C(F)(F)F)=NN2)cc1
inactive: [4] 110 % of control | [5] 104 % of control | [6] 119 % of control

Cc1ccc(S(=O)CF)cc1 (stereo not given)
inactive: [8] 107 % of control

CCCCCOC(=O)C1=CCN2CCCC12C (stereo not given)
inactive: dose: 25.0 mg/kg/injection, schedule: Q01DX001 (ip), vehicle: saline with Tween-80 97 % of control | dose: 50.0 mg/kg/injection, schedule: Q01DX001 (ip), vehicle: saline with Tween-80 105 % of control | dose: 100.0 mg/kg/injection, schedule: Q01DX001 (ip), vehicle: saline with Tween-80 97 % of control

NC(=O)c1c(-c2ccccc2)cn2c(C(=O)O)ccnc12
inactive: [7] 98 % of control | dose: 120.0 mg/kg/injection, schedule: Q01DX005 (ip), vehicle: saline with Tween-80 98 % of control | dose: 240.0 mg/kg/injection, schedule: Q01DX005 (ip), vehicle: saline with Tween-80 102 % of control

CCOC(=O)Cn1c(=O)cc(-c2ccccc2)oc1=O
inactive: [4] 106 % of control | [5] 107 % of control | [6] 90 % of control

— PubChem BioAssay AID330 (DTP/NCI, 2004)
